The results in this text go back to publication PMC12454493, “Insight on novel sulfamoylphenyl pyrazole derivatives as anticancer carbonic anhydrase inhibitors” (Molecular Diversity, 2024).

Where “and” joins values, the source holds several entries; their conditions need not be identical. Equal entries are not always repeated. Where two headings read alike, the source gives them in different places. Where only a bound is given, the exact number is not on record here.

For experiment [1], the system named is NCI/ADR-RES. The experiment in a line: NCI-60 one-dose SRB screen (Ovarian cancer). The class given is cell-based. The settings on record: Homo sapiens, single dose 10 µM, 48 h, read-out: Growth inhibition percent (GI %).
Experiment [2] deals with OVCAR-4. The experiment in a line: NCI-60 one-dose SRB screen (Ovarian cancer). The class given is cell-based. The conditions noted are these: Homo sapiens, single dose 10 µM, 48 h, read-out: Growth inhibition percent (GI %).
The subject of experiment [3] is OVCAR-3. The experiment in a line: NCI-60 one-dose SRB screen (Ovarian cancer). The format is cell-based. The conditions noted are these: Homo sapiens, single dose 10 µM, 48 h, read-out: Growth inhibition percent (GI %).
Experiment [4] deals with OVCAR-5. The experiment in a line: NCI-60 one-dose SRB screen (Ovarian cancer). The class given is cell-based. The settings on record: Homo sapiens, single dose 10 µM, 48 h, read-out: Growth inhibition percent (GI %).
The subject of experiment [5] is SK-OV-3. The experiment in a line: NCI-60 one-dose SRB screen (Ovarian cancer). The format is cell-based. The settings on record: Homo sapiens, single dose 10 µM, 48 h, read-out: Growth inhibition percent (GI %).
Experiment [6] concerns IGROV1. The experiment in a line: NCI-60 one-dose SRB screen (Ovarian cancer). The format is cell-based. The settings on record: Homo sapiens, IGROV-1, single dose 10 µM, 48 h, read-out: Growth inhibition percent (GI %).
In experiment [7] the test system is OVCAR-8. The experiment in a line: NCI-60 one-dose SRB screen (Ovarian cancer). The format is cell-based. The settings on record: Homo sapiens, single dose 10 µM, 48 h, read-out: Growth inhibition percent (GI %).
Experiment [8] deals with hCA XII (Homo sapiens, UniProt O43570). The experiment in a line: CA inhibitory activity, spectrophotometric p-NPA assay. The class given is biochemical. The settings on record: for IC50: p-NPA substrate, pH 7.5, 25 °C, triplicate, read-out: IC50 (µM) ± SD hCA XII.
Experiment [9] has as its system MCF-7 breast cancer cell line. The experiment in a line: Cell cycle analysis by flow cytometry. The settings on record: 24 h. The format is cell-based, human. Background: Flow cytometry measures light scatter and fluorescence of single cells or particles in a stream.
For experiment [10], the system named is HL-60(TB). The experiment in a line: NCI-60 one-dose SRB screen (Leukemia). The format is cell-based. The settings on record: Homo sapiens, single dose 10 µM, 48 h, read-out: Growth inhibition percent (GI %).
For experiment [11], the system named is K-562. The experiment in a line: NCI-60 one-dose SRB screen (Leukemia). The class given is cell-based. The settings on record: Homo sapiens, K562, single dose 10 µM, 48 h, read-out: Growth inhibition percent (GI %).
Experiment [12] relates to MOLT-4. The experiment in a line: NCI-60 one-dose SRB screen (Leukemia). The format is cell-based. The settings on record: Homo sapiens, single dose 10 µM, 48 h, read-out: Growth inhibition percent (GI %).
Experiment [13] concerns RPMI-8226. The experiment in a line: NCI-60 one-dose SRB screen (Leukemia). The format is cell-based. The conditions noted are these: Homo sapiens, single dose 10 µM, 48 h, read-out: Growth inhibition percent (GI %).
Experiment [14] has as its system SR. The experiment in a line: NCI-60 one-dose SRB screen (Leukemia). The settings on record: Homo sapiens, single dose 10 µM, 48 h, read-out: Growth inhibition percent (GI %). The class given is cell-based.
In experiment [15] the test system is MCF-7 breast cancer cell line. The experiment in a line: In vitro cytotoxicity, MTT assay. The settings on record: Homo sapiens. A general note: Formazan colour is commonly taken as a measure of viable cells.
Method: In vitro cytotoxic activity:
Firstly, cultures were delivered into sterile area then each vial was supplied with 3 mL of medium or balanced salt solution free from phenol red and serum. Cultures were subjected to incubation foe 2-4 g. After the incubation period, MTT solubilization solution was added to remove the produced formazan crystals. Spectrophotometric measurement of absorbance was carried out at 690 nm for the background which then subtracted from absorbance measured at 570 nm. Five different drug concentrations were used 100, 25, 6.3, 1.6 and 0.4 nM and measured in triplicate.
was determined using Annexin V-FITC Apoptosis Detection Kit (Bio Vision) according to the manufacturer’s procedures. Briefly, cell lines were cultured and incubated with each of the tested compounds for 48 h. Then, the cells were collected by centrifugation and resuspended in 500 μl of 1X binding buffer. 5 μl of Annexin V-FITC was added and 5 μl of propidium iodide (PI 50 mg/ml, optional.). The cells were incubated at room temperature for
Experiment [16] concerns DU-145. The experiment in a line: NCI-60 one-dose SRB screen (Prostate Cancer). The class given is cell-based. The settings on record: Homo sapiens, single dose 10 µM, 48 h, read-out: Growth inhibition percent (GI %).
In experiment [17] the test system is PC-3. The experiment in a line: NCI-60 one-dose SRB screen (Prostate Cancer). The class given is cell-based. The conditions noted are these: Homo sapiens, single dose 10 µM, 48 h, read-out: Growth inhibition percent (GI %).
For experiment [18], the system named is MCF-7 breast cancer cell line. The experiment in a line: Apoptotic assay, Annexin V-FITC/propidium iodide. The format is cell-based, human. The procedure:
S.1.4. Cell cycle analysis and Apoptotic assay
S.1.4.1. Cell cycle analysis […]
Briefly, cell lines were cultured and incubated with each of the tested compounds for 48 h. Then, the cells were collected by centrifugation and resuspended in 500 μl of 1X binding buffer. 5 μl of Annexin V-FITC was added and 5 μl of propidium iodide (PI […], optional.). The cells were incubated at room temperature for 5 min in the dark. Annexin V-FITC binding was analyzed by flow cytometry (Ex = 488 nm; Em = 530 nm) using FITC signal detector and PI staining was analyzed by the phycoerythrin emission signal detector.
S.1.4.2. Apoptotic assay: cell lines were cultured and incubated with each of the tested compounds for 48 h.
Then, the cells were collected by centrifugation and resuspended in 500 μl of 1X binding buffer. 5 μl of Annexin V-FITC was added and 5 μl of propidium iodide (PI 50 mg/ml, optional.). the cells were incubated at room temperature for 5 min in the dark. Annexin V-FITC binding was analyzed by flow cytometry (Ex = 488 nm; Em = 530 nm) using FITC signal detector and PI staining was analyzed by the phycoerythrin emission signal detector.

Experiment [19] relates to panel of 60 cancer cell lines. The experiment in a line: NCI-60 one-dose SRB screen, range over the whole panel. The format is cell-based. The settings on record: Homo sapiens; single dose 10 µM, SRB assay, range over the tested cell lines; read-out: growth inhibition (GI %) range over the panels. The procedure:
The National Cancer Institute (NCI) Developmental Therapeutic Program (www.dtp.nci.nih.gov) selected the 20 novel synthesized compounds 4a-e, 5a-e, 6a-c, 9a-e, 10 and 11 to test for their anticancer activity at a single dose of 10 µM using SRB assay. […] Supplementary Data S3; Table S1 presents the detailed screening results of the most promising compounds. The preliminary screening’s detailed results for the remaining compounds are elucidated in the (Supplementary Data S3; Table S2).
The guidelines of the Drug Evaluation Branch’s protocol at the NCI in Bethesda served as the basis for the in vitro anticancer screening assays. at one dose 10 µM against a panel of 60 cancer cell lines. The human tumor cell lines used belonged to nine panels: leukemia, melanoma, lung, colon, CNS, ovarian, renal, prostate and breast cancers using the sulforhodamine B (SRB) assay in a 48 h drug exposure protocol.
A general note: The SRB assay estimates cell density from bound dye.

Setting [20] is: MCF-7, hypoxic conditions, at IC50 (3.50 µM).
Where [21] appears, read: MCF-7, normal conditions, at IC50 (5.21 µM).

Chain of hCA XII (O43570 25-354): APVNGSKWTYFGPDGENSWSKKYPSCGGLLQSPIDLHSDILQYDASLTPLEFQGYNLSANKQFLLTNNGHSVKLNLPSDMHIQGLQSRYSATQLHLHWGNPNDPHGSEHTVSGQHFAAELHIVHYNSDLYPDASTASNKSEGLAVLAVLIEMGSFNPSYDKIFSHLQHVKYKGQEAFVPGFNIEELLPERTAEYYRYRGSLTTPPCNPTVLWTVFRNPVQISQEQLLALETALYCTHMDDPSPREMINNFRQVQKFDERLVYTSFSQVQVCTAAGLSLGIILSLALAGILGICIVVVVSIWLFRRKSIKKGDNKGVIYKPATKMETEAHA

By inhibition is commonly meant the change of the read-out against control, counted positive when it falls. One may read the Ki as a measure of affinity in units of concentration, obtained from inhibition or displacement. A lower Ki goes with tighter binding. One may read the IC50 as the concentration that inhibits the measured activity by half. Consider `CCOC(=O)c1ccc(NC(=O)COC(=O)c2cn(-c3ccc(S(N)(=O)=O)cc3)nc2-c2ccc(C)cc2)cc1` [Compound 5b, 2-[(4-(Ethoxycarbonyl)phenyl)amino]-2-oxoethyl 1-(4-sulfamoylphenyl)-3-(p-tolyl)-1H-pyrazole-4-carboxylate], for which the inhibition at 10 µM was 22.3% in [1]; 58.8% in experiment [2]; 53.5% in [3]; 33.1% in experiment [4]; below 5% in experiment [5]; 21.4% in experiment [6]. The inhibition at 10 µM turned out to be 12.8% in [7]; 70.2% in [10]; 74.5% in experiment [11]; 83.8% in experiment [12]; 64.1% in [13]; 73.4% in [14]. In addition, the results for the inhibition at 10 µM in experiment [16] and in [17] were 28.9% and 68.7%, respectively. For the same molecule, the Ki in experiment [8] amounted to 106 nM. In addition, the IC50 in [8] is 0.1 µM and 0.106 µM; in experiment [15] (MCF7, read-out: IC50 (µM) ± SD cytotoxic activity, MCF-7, MTT, normal conditions), 5.21 ± 0.21 µM; in [15] (MCF7, read-out: IC50 (µM) ± SD cytotoxic activity, MCF-7, MTT, under hypoxia) it was 3.5 ± 0.14 µM. Further, the “DNA content % G0-G1” value in experiment [9] (setting [20]) was found to be 48.13%; in experiment [9] (setting [21]) it was 67.39%. The results for the “DNA content % G2/M” value in [9] (setting [20]) and in [9] (setting [21]) were 32.28% and 3.05%, respectively. The “DNA content % S” value amounted to 19.59% in experiment [9] (setting [20]) and 29.56% in experiment [9] (setting [21]). Further, the “Apoptosis % Early %” value came out at 21.41% in [18] (MCF-7, hypoxic conditions) and 13.52% in [18] (MCF-7, normal conditions). The “Apoptosis % Late %” value in experiment [18] (MCF-7, hypoxic conditions) is reported as 11.49%; in experiment [18] (MCF-7, normal conditions), 25.05%. The “Apoptosis % Total %” value in experiment [18] (MCF-7, hypoxic conditions) is recorded as 37.31%. In addition, the Necrosis % in experiment [18] (MCF-7, hypoxic conditions) was 4.41%; in [18] (MCF-7, normal conditions), 3.76%.
As for `NS(=O)(=O)c1ccc(NC(=O)COC(=O)c2cn(-c3ccc(S(N)(=O)=O)cc3)nc2-c2ccc(Br)cc2)cc1` [Compound 4d, 2-Oxo-2-[(4-sulfamoylphenyl)amino] ethyl 3-(4-bromophenyl)-1-(4-sulfamoylphenyl)-1H-pyrazole-4-carboxylate], the inhibition at 10 µM in experiment [2] was 34.6%; in experiment [3] it was 23%; in [4], 12.3%; in experiment [5] it was below 5%; in [6] it was below 5%; in experiment [7], below 5%. Moreover, the inhibition at 10 µM is 8.46 to 86.5% in experiment [19]; 37.6% in experiment [10]; 82.5% in experiment [11]; 60.1% in experiment [12]; below 5% in experiment [13]; 22.9% in experiment [14]. Further, the inhibition at 10 µM is below 5% in experiment [16] and 23.1% in experiment [17]. Moreover, the IC50 in [8] is 0.81 µM and 0.814 µM.
